Patent publication US5281581A, “Treatment of insulin resistance” (Amylin Pharmaceuticals, Inc., priority 1992, dated 1994)

Test system: rat islets of Langerhans
Assay: glucose-stimulated insulin secretion by isolated islets of Langerhans
Assay type: cell-based
Conditions: glucose 10 mmol/L
Description: All experiments were performed by known methods used in experimental practice. See, e.g., Lacey P. E., and Kostianovsky M, Method for the isolation of intact islets of Langerhans from the rat pancreas. Diabetes 1967; 16: 35-39.
Briefly, rats were killed, and islets of Langerhans were isolated from their pancreases. Experiments were performed either with freshly isolated islets or after overnight incubation of islets (23 h) in standard culture medium and conditions at 37° C. […] Incubation of islets for these experiments was carried out in standard Krebs-Heinsleit buffer, and it was verified that the addition of the 1.0 mmol/L citrate buffer had no effect on the pH of the incubation medium. Stimulation of islets was carried out at the standard stimulatory glucose concentration of 10 mmol/L.
Production of insulin is expressed as μU/islet/h. All experiments were performed with five replicates per point. The integrity of the islet response was assessed by comparing the responses after stimulation of different aliquots of islets by two and ten mmol/L glucose, respectively, and the strength of the inhibitory response was judged against that induced by 1 μg/ml (650 nmol/L) somatostatin. […] See Arimura A. Biomed res 1981; 2: 233-257. […] See Petterson M., Ahren B., Bottcher G., Sundler F., Endocrinology 1986; 119: 865-869.
The results are shown in TABLE 5 below and all results are expressed as ± standard error of the mean (s.e.m.). The significance of differences between the means of groups is assessed by the t-test. The result of stimulation by 10 mmol/L glucose is compared with the results of stimulation at 2 mmol/L glucose. In all other experimental conditions, the significance of the inhibitory effect is measured against the effect of 10 mmol/L glucose alone.

Compound	INSULIN PRODUCTION Mean Value (substance 650 nmol/L) [μU/islet/hr]	RELATIVE INSULIN SECRETION INHIBITION (substance 650 nmol/L) [%]	INSULIN PRODUCTION Mean Value (substance 10 nmol/L) [μU/islet/hr]	RELATIVE INSULIN SECRETION INHIBITION (substance 10 nmol/L) [%]	INSULIN PRODUCTION Mean Value (substance 100 nmol/L) [μU/islet/hr]	RELATIVE INSULIN SECRETION INHIBITION (substance 100 nmol/L) [%]	INSULIN PRODUCTION Mean Value (substance 1000 nmol/L) [μU/islet/hr]	RELATIVE INSULIN SECRETION INHIBITION (substance 1000 nmol/L) [%]
C[C@H](N)C(=O)NCC(=O)N[C@H]1CSSC[C@@H](C(=O)O)NC(=O)[C@H](CO)NC(=O)[C@H]([C@@H](C)O)NC(=O)[C@H](Cc2ccccc2)NC(=O)[C@H]([C@@H](C)O)NC(=O)[C@H](CCCCN)NC(=O)[C@H](Cc2c[nH]c3ccccc23)NC(=O)[C@H](Cc2ccccc2)NC(=O)[C@H](Cc2ccccc2)NC(=O)[C@H](CC(N)=O)NC(=O)[C@H](CCCCN)NC1=O [Somatostatin, reference compound]	44	45						
CGRP 27-37			36	55	36	55	46	42
